The test system of data set [1] is myelodysplastic syndromes (MDS) patients. Particulars: cited from earlier work.
The target of the next data set is T1, CD19 (human, UniProt P15391 20-556).
T1 sequence (looked up): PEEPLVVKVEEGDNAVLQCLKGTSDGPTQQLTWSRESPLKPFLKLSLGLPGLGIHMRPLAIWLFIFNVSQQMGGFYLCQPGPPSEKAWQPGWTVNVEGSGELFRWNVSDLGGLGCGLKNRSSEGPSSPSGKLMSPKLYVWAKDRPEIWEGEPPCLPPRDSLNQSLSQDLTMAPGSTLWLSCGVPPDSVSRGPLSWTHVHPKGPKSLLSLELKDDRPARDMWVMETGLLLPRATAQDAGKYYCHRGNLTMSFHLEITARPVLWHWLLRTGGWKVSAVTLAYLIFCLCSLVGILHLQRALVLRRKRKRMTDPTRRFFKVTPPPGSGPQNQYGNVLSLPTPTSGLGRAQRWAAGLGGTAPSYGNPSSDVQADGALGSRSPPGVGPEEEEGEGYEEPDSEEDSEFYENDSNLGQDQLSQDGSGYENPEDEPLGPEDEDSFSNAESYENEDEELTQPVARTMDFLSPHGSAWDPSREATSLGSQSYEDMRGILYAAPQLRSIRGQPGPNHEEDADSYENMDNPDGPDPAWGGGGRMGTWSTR
The data set is described as follows: cell-based or functional assay.

The mark [2] stands for this setting: patients with a del(5q) chromosomal abnormality.

Here are results for 2 molecules from patent US20220305132A1, “COMBINATION THERAPY COMPRISING AN ANTI-CD19 ANTIBODY DRUG CONJUGATE AND A PI3K INHIBITOR OR A SECONDARY AGENT” (ADC THERAPEUTICS SA, priority 2019, published 2022).

As for `Nc1cccc2c1CN(C1CCC(=O)NC1=O)C2=O` (racemic) [Lenalidomide, 3-(7-amino-3-oxo-1H-isoindol-2-yl)piperidine-2,6-dione], the Adverse events entry in data set [1] (MDS patients) was “neutropenia and thrombocytopenia, pruritus, rash, diarrhea”. For the same molecule, in data set [1] (non-del(5q) patients with confirmed low- and intermediate-1 risk), the “transfusion independence or a reduction of at least 50% of pre-treatment RBC transfusion levels” value is on record as 43 % of patients. In addition, in data set [1] (setting [2]), the complete cytogenetic remission is given as 45 % of patients, the minor cytogenetic remission is 28% and the “red blood cell (RBC) transfusion independence” value is 67 % of patients.

B1: ADCx19 (antibody, V domains shown)
VH: QVQLVQPGAEVVKPGASVKLSCKTSGYTFTSNWMHWVKQAPGQGLEWIGEIDPSDSYTNYNQNFQGKAKLTVDKSTSTAYMEVSSLRSDDTAVYYCARGSNPYYYAMDYWGQGTSVTVS
VL: EIVLTQSPAIMSASPGERVTMTCSASSGVNYMHWYQQKPGTSPRRWIYDTSKLASGVPARFSGSGSGTSYSLTISSMEPEDAATYYCHQRGSYTFGGGTKLEIK
As to B1, in the data set with CD19, the “Median IC50, MTT proliferation assay, 96 h exposure, 48 B-cell lymphoma lines” value turned out to be 4 pM.
